Data from PubChem BioAssay (NCI).
Where “and” joins values, the source holds several entries; their conditions need not be identical. Identical values can stand only once.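 Growth conditions: 96-well plates. Treatment: test compound, 48 hours, 5 concentrations. Analysis: linear interpolation between bracketing concentrations; unreached endpoints set to highest concentration. The concentration for 50% growth inhibition is given as GI50. The concentration for full growth arrest is given as TGI.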

Experiments:
Test in all cases: NCI tumour cell line growth inhibition, 48 h
[1] = test system: SNB-78 CNS
[2] = test system: M19-MEL melanoma
[3] = test system: DLD-1 colon
[4] = test system: RXF-631 renal
[5] = test system: DMS 114 small cell lung
[6] = test system: KM20L2 colon
[7] = test system: LXFL 529 NSCLC
[8] = test system: HOP-18 NSCLC
[9] = test system: MDA-N
[10] = test system: P388/ADR leukemia
[11] = test system: SN12K1 renal

| SMILES | TGI [1] | TGI [2] | TGI [3] | TGI [4] | TGI [5] | TGI [6] | TGI [7] | TGI [8] | TGI [9] | GI50 [1] | GI50 [2] | GI50 [3] | GI50 [9] | TGI [10] | GI50 [8] | GI50 [5] | TGI [11] | GI50 [6] |
| --- | --- | --- | --- | --- | --- | --- | --- | --- | --- | --- | --- | --- | --- | --- | --- | --- | --- | --- |
| Cc1cccc(C)c1NC(=O)C(=O)C(C(=O)c1ccccc1-c1ccccc1)C1OC(=O)c2ccccc21 (centres undefined) | > 100 µM | 34.7 µM | 37.3 µM | > 100 µM | 32.4 µM | 67.7 µM | 27.5 µM |  |  |  |  |  |  |  |  |  |  |  |
| Cc1cc(C)nc(NS(=O)(=O)c2ccc(NC(=O)c3cccc4c(Nc5ccc(S(N)(=O)=O)cc5)c5ccccc5nc34)cc2)n1 | 52.3 µM | 46.5 µM | > 100 µM | > 100 µM | 42.6 µM | > 100 µM | > 100 µM | > 100 µM |  |  |  |  |  |  |  |  |  |  |
| OCc1ccn2c1[C@@H](O)CC2 |  |  |  |  |  |  |  |  | > 100000 nM |  |  |  |  |  |  |  |  |  |
| O=C(/C=C/c1ccccc1Cl)NC1C=Nc2ccc([N+](=O)[O-])cc2NC1 (centres undefined) | > 100 µM | > 100 µM | > 100 µM |  | > 100 µM | > 100 µM | > 100 µM | > 100 µM |  |  |  |  |  |  |  |  |  |  |
| CC(C)(S)C(N)C(=O)O (centres undefined) |  |  |  |  |  |  |  |  | > 100000 nM |  |  |  |  |  |  |  |  |  |
| Cc1nc([N+](=O)[O-])cn1CC(=N)N |  | > 100 µM | > 100 µM | > 100 µM | > 100 µM | > 100 µM | > 100 µM |  |  |  |  |  |  |  |  |  |  |  |
| CC(C)N(C(=O)C12C3C4C1(I)C1C2C3(I)C41C(=O)N(C(C)C)C(C)C)C(C)C (centres undefined) |  | > 70.9 µM | > 100 µM | > 100 µM |  | > 100 µM | > 100 µM | > 100 µM |  |  |  |  |  |  |  |  |  |  |
| COC(=O)[C@H]1C=C[C@@H](C)n2c(=O)c3cc4ccccc4cc3c(=O)n21 | > 100 µM | > 100 µM | > 100 µM | > 100 µM | > 100 µM | > 100 µM | > 100 µM |  |  |  |  |  |  |  |  |  |  |  |
| Cc1nc2sc3c(c2c(=O)[nH]1)CCCC3 |  |  |  |  |  |  |  |  | > 100000 nM |  |  |  |  |  |  |  |  |  |
| O=P1(c2ccccc2)CCCCC1 | > 100 µM |  | > 100 µM |  | > 100 µM | > 100 µM | > 100 µM | > 100 µM |  |  |  |  |  |  |  |  |  |  |
| COc1cc(C=O)c(-c2cc(OC)c(OC)cc2C=O)cc1OC | > 100 µM | > 100 µM | > 100 µM |  | 88.3 µM | > 100 µM | > 100 µM | > 100 µM |  |  |  |  |  |  |  |  |  |  |
| CCCN1CN(C(C(=O)N[C@@H]2C(=O)N3C2SC(C)(C)C3C(=O)O)c2ccc(O)cc2)CSC1=S (some centres undefined) |  | > 100 µM | > 100 µM |  | 65.3 µM | > 100 µM | > 100 µM | > 100 µM |  |  |  |  |  |  |  |  |  |  |
| CC1COC(C)(C)P(=O)(c2ccccc2)C1 (centres undefined) | > 100 µM | > 100 µM | > 100 µM |  | > 100 µM | > 100 µM | > 100 µM | > 100 µM |  |  |  |  |  |  |  |  |  |  |
| CC[C@H]1CN2CCc3cc(OC)c(OC)cc3[C@@H]2C[C@@H]1C[C@H]1NCCc2c1[nH]c1ccc(O)cc21 | 0.0828 µM and 0.0713 µM and 0.11 µM | 0.0461 µM and 0.076 µM and < 0.0112 µM | 0.246 µM and 0.57 µM and 1.58 µM |  | 0.0184 µM and 0.0571 µM | 0.0858 µM and 0.47 µM and 0.241 µM |  | 0.711 µM and 0.0824 µM and 0.449 µM | 56.8 nM and 182 nM | 27.3 nM and 25.7 nM | 16.4 nM and 24.1 nM | 144 nM | 23.4 nM | > 100 µM | 188 nM and 28.3 nM | 4.7 nM and 13.3 nM | 2640 nM | 31.7 nM and 54.9 nM |
| CCCO/S(=N\S(=O)(=O)c1ccccc1)c1ccccc1[N+](=O)[O-] (centres undefined) | > 100 µM | > 100 µM | > 100 µM | > 100 µM | > 100 µM | > 100 µM | > 100 µM |  |  |  |  |  |  |  |  |  |  |  |
| Cc1ccc(S(=O)(=O)c2ccc(N)cc2)cc1 | > 100 µM | > 100 µM | > 100 µM | > 100 µM |  | > 100 µM | > 100 µM |  |  |  |  |  |  |  |  |  |  |  |
| COc1cc2c(OC)cc1CSCc1sc(C)c(c1Br)CSC2 | > 100 µM | > 100 µM | > 100 µM | > 100 µM | > 100 µM | > 100 µM | > 100 µM | > 100 µM |  |  |  |  |  |  |  |  |  |  |
| Cc1c(/C=N/NC(=O)c2ccc(Cl)cc2)c(=O)n(-c2ccccc2)n1C | > 100 µM | > 100 µM | > 100 µM |  | > 100 µM | > 100 µM | > 100 µM | > 100 µM |  |  |  |  |  |  |  |  |  |  |
